US20230014226A1, “NEW COMPOUNDS AND METHODS” (BenevolentAI Bio Limited, priority 2019, published 2023)
pIC50: −log10 of the molar value. Like-named read-outs stand apart in the source and are kept apart here.

Assays:
HUVEC = HUVEC Cell Viability (CV) assay; format: cell-based, human; settings: Homo sapiens, alamarBlue
Experimental: Cells are seeded at 10,000 cells/well in 96-well plates in HUVEC specific cell culture media. Cells are plated and cultured overnight (16-24 h) at 37° C. After the overnight culture, cells are washed and fed with the Assay Medium. Test compounds are applied and incubated with the cells for the designated time period, after which the cell viability is measured by alamarBlue method. […] The final DMSO concentration is 1%.
Fluorescence readings are recorded after the test compound and alamarBlue incubation. The excitation and emission wavelengths are 530 nm and 590 nm, respectively.
The percent of control is calculated by comparing the readings in the presence of the test compound to the vehicle control. Subsequently, the percent inhibition is calculated by subtracting the percent control activity from 100. IC50 values (concentration causing a half-maximal inhibition of the control value) are determined by non-linear regression analysis of the concentration-response curves using the Hill equation.
The reference compound used for this assay is Staurosporine.

[1] = tested on: HUVEC (human umbilical venous endothelial cells); test: HUVEC Tube Formation assay; format: cell-based
Experimental: HUVEC (human umbilical venous endothelial cells, 1.5×10^4/well, ATCC CRL-1730) are placed in an earlier prepared 96-well plate. Test substance and/or vehicle is then added to each well in a final concentration of 0.4% DMSO in growth medium under an atmosphere of 5% CO2 at 37° C. After an 18 h incubation period, morphology of the endothelial cell tubes, which resemble a capillary-like network, are evaluated by a confocal high-content imaging system. Disruption (anti-angiogenesis) of total tube length is measured from each photograph and determined relative to the vehicle control group. […] Compounds are screened at 30, 3, 0.3, 0.03 and 0.003 μM (or μg/mL) in triplicate.

[2] = tested on: SC-hCMs (stem cell cardiomyocytes); test: Cardiomyocyte assay (CRL), iPSC cardiomyocytes; format: cell-based, human; settings: for ΔΔ Na Spike Amp at 10 μM, 48 h (%): corrected by time matched controls
Experimental: All measurements were performed at physiological temperature in a tissue culture incubator (37° C.; 5% CO2). Test article, positive controls and vehicle were added in a sterile tissue culture hood.
At least 10 h before compound addition SC-hCMs were exposed to the fresh culture medium. Before compound addition a one-minute recording of field potentials and impedance signals (baseline) was obtained. Test articles, vehicle and positive controls were added as a 2× concentration. One-minute recordings were obtained 0.5, 1, 2, 24 and 48 h after test article addition.
At the time of drug application, culture medium was added to an independent 96 well plate that was incubated in a tissue culture incubator for 48 h. This culture medium was used as the blank of the cTnI release assay.
After the 48 h exposure recording, 150 μL of each well was centrifuged to remove debris. The supernatant was collected and frozen for later cTnI content analysis using an ELISA plate according the manufacturer's instructions (Abcam, cat #ab200016).
Data was stored on the Charles River Laboratories computer network for off-line analysis. Data acquisition was performed using RTCA Cardio Software.
Data analysis was performed using RTCA Cardio Software, Microsoft Excel and Matlab scripts. Data were reported as mean±SEM.
The following field potential parameters were quantitated: Sodium Spike amplitude, Sodium Spike Rate, field potential duration (FPD), Bazett corrected field potential duration (FPDcB), and dysrhythmic events if present.
The following impedance parameters were quantitated: Cell Index, peak amplitude, relaxation from peak to 50% amplitude (Rel50) and twitch duration.
The sodium spike is the voltage signal produced by the propagation of the depolarizing wave (positive peak) and the local activation of sodium channels (negative peak). The sodium spike amplitude is the voltage difference (in […]) between the positive and negative peaks of the sodium spike. The Sodium Spike Rate is a measure of the rate of sodium spike generation (spikes/min) produced by the spontaneous beating of stem cell cardiomyocytes.
Abnormal rhythm activity was characterized by the presence of the following proarrhythmic markers:
Triggered activity: Triggered activity (TA) is activity characterized by the presence of voltage oscillations during the repolarization period (Early After Depolarizations, EADs) or after the repolarization is completed (Delayed After Depolarizations, DADs). They are produced by different mechanisms. EADs are due to reactivation of sodium and calcium currents due to prolongation of the action potential. DADs are due to transient releases of calcium from intracellular calcium stores. Both EADs and DADs can trigger action potentials (ectopic beats, EB).
Impedance instability: Impedance instability (II) consist of small oscillations of the impedance signal during the slower relaxation phase of the impedance twitch sometimes associated with small oscillations of the field potential (FPO). […] II informs about the possibility of drug-induced delayed repolarization setting the background where more robust proarrhythmic markers like EADs and DADs occur.
The SEM of the difference was calculated according to the following equation ΔΔSEM=(SEMtreatment2+SEMcontrol2)0.5.
The statistical analysis includes 1) a Student paired t-test to evaluate the changes respect to baseline and, 2) a multi-comparison analysis (Dunnett's test) of A % changes respect to time matched controls. An alpha probability of 0.05 was considered significant.

[3] = tested on: murine Hb9-GFP+ motor neurons in co-culture with ALS patient iAstrocytes; test: Human iAstrocyte - murine Hb9-GFP+ motor neuron co-culture; format: cell-based, human iAstrocytes; settings: for rescue of motor neuron survival in co-culture with patient-derived iAstrocytes (FIG. 3): 72 hours co-culture, dose dependant, maximum responses close to positive control (1 μM Nilotinib); for efficacy at very high concentrations (motor neuron survival): potentially due to compound toxicity
Excerpt: iNPCs (induced Neuronal Progenitor Cells) were derived from ALS patient fibroblasts as described previously (Meyer et al. 20148). iNPCs were differentiated into iAstrocytes by culturing in iAsrocyte media for at least 5 days. Murine motor neurons expressing the green fluorescent protein (GFP) under the Hb9 motor neuron-specific promoter (called from now on Hb9-GFP+) were differentiated from murine embryonic stem cells via embryoid bodies (EBs), as previously described (Haidet-Phillips et al. 20119, Wichterle et al. 200210).
iNPCs and mESC were split into iAstrocyte media and mEB media respectively on the same day, such that iAstrocytes and motor neurons will have both differentiated for 7 days when seeded together in co-culture.
Changed media on iAstrocytes, and split using accutase if 90-100% confluent 3 days after seeding from iNPCs. iAstrocytes were left a further 2 days in iAstrocyte media until seeded onto 384-well plates.
Diluted fibronection 1:400 in PBS, and 5 μL added per well. The plate was incubated with fibronectin at room temp for at least 5 mins.
The media was removed from iAstrocytes, and washed in PBS. 1 mL accutase per 10 cm plate was added, and incubated at 37° C. for 4 mins. The plate was tapped to dislodge any remaining iAstrocytes. The iAstrocytes were resuspended in iAstro media, and centrifuged at 200×g for 4 mins. The supernatant was removed, the falcon was flicked to vortex the cells, and resuspended the cells in an appropriate amount of iAstrocyte media. Counted cells using the haemocytometer, and diluted cells to an appropriate dilution for seeding. Seeded 1-2,000 iAstrocytes in 35 μL media on fibronectin-coated 384-well plates. Centrifuged 384-well plates at 1,760×rpm for 60 s using a PK120 (ALC) centrifuged (in neurogenetics) to collect media and cells to base of wells. Plates were left for 24 h for iAstrocytes to adhere to plate.
Drugs were delivered in 100% drug-grade DMSO to iAstrocyte media using an Echo550 liquid handler (Labcyte). 384-well plates were centrifuged at 1,760×rpm for 60 s using a PK120 (ALC) centrifuge.
2 plates of EBs were collected in a 50 mL tube and centrifuged for 4 mins at 200×g. The supernatant was removed from EBs after centrifugation, and washed in 10 mL PBS then centrifuged again for 4 mins at 200×g, and PBS wash removed.
For each 50 mL tube, 2.75 mL EB dissociation buffer was added and then 250 μL 200 U/mL (10×) Papain. The solution was gently pipetted up and down 10 times, using a P1000 pipette, against the side of the falcon (EB pellet was not pipetted directly). 50 mL tube was put in 37° C. water bath and incubated for 5 mins. Tube removed every 3 mins and gently shaken. After 5 mins, additional 2 mL of EB dissociation and 100 μL 200 U/mL (10×) Papain were added, which was then pipette again 5 times with P1000 pipette, and returned to the water bath for another 5 mins. It was returned to water bath as before, and incubated for no longer than 15-20 mins.
Centrifuged for 5 mins at 300×g. Each 50 mL tube, 2.7 mL EB dissociation was prepared, to which 300 μL FBS and 150 μL 0.5 mg/mL DNaseI was added. The supernatant was removed from dissociated EBs and 3 mL of the FBS/DNaseI mix was added, pipetted up and down with P1000 pipette about 5 times. 5 mL FBS was added very slowly to the bottom of the falcon containing the dissociated EBs. The supernatant was removed and the cells very gently resuspended in about 3 mL MN media (more used if the pellet is large) and filtered through a 40 μm filter. 1 mL extra MN media was added to wash the filter.
2,500 murine Hb9-GFP+ motor neurons were seeded per well in 10 μL motor neuron media on top of the pre-treated iAstrocytes. 384-well plates were centrifuged at 1,760×rpm for 60 s using a PK120 (ALC) centrifuge.
Day8 15 μL motor neuron media were added per well. Hb9-GFP+ motor neurons were imaged using an INCELL analyser 2000 (GE Healthcare)—day 1 of co-culture. […]

[4] = tested on: α-synuclein in ReNcell VM Neuronal cells; test: Modulation of α-synuclein aggregation; format: cell-based; settings: for amount of α-synuclein present in ReNcell VM neuronal cells (FIG. 4): 6 days of compound treatment, antibodies Syn205 and MJF-14; for pIC50: ReNcell VM, 100% = reduction equal to 10 μM KU0063794, 0% = 0.1% DMSO
Experimental: Compounds were assessed for their ability to modulate α-synuclein aggregation. ReNcell VM Neuronal cells were transduced with α-synuclein encoded adenovirus, and compounds were added after 24 hours. After 72 hours, compound was refreshed. After an additional 72 h, cells were fixated (a total of 6 days of compound treatment). Two distinct α-synuclein antibodies were added (Syn205 and MJF-14), imaging was performed on IN Cell 2200 at 10× magnification. Immunoreactivity is quantified by a high content algorithm. Compound data is normalized to a negative control (0.1% DMSO) and a positive control (10 μM KU0063794; CAS 938440-64-3).

Cc1ccc(C(=O)Nc2ccc(CN3CCN(C)CC3)c(C(F)(F)F)c2)cc1C#Cc1cnc2cccnn12 [Comparative Example 2, 3-(imidazo[1,2-b]pyridazin-3-ylethynyl)-4-methyl-N-[4-[(4-methyl-1-piperazinyl)methyl]-3-(trifluoromethyl)phenyl]benzamide, reference compound]
pIC50 (HUVEC): 6.49
GI50 ([1]; 18 h, read-out: Tube formation GI50 (μM)): 1.2 µM
Proarrhythmic Markers at 10 μM, 48 h ([2]; 10 μM, 48 h): Q and RV
ΔΔ Na Spike Amp at 10 μM, 48 h (%) ([2]; 10 μM, 48 h): (cells quiescent)

Cc1cn(-c2cc(NC(=O)c3ccc(C)c(Nc4nccc(-c5cccnc5)n4)c3)cc(C(F)(F)F)c2)cn1 [Comparative Example 3, 4-methyl-N-[3-(4-methylimidazol-1-yl)-5-(trifluoromethyl)phenyl]-3-[(4-pyridin-3-ylpyrimidin-2-yl)amino]benzamide, reference compound]
pIC50 (HUVEC): 5.44
GI50 ([1]; 18 h incubation, read-out: Tube formation GI50): > 10 µM
Proarrhythmic Markers at 10 μM, 48 h ([2]; 10 μM, 48 h): II and TA
ΔΔ Na Spike Amp at 10 μM, 48 h (%) ([2]; 10 μM, 48 h): −96.2%

Cc1ccc(C(=O)Nc2cnn(C(C)(C)C)c2)cc1C#Cc1cccnc1 [Example 10, N-(1-tert-butyl-1H-pyrazol-4-yl)-4-methyl-3-[2-(pyridin-3-yl)ethynyl]benzamide]
rescue of motor neuron survival in co-culture with patient-derived iAstrocytes (FIG. 3) [3]: rescue motor neuron survival

Cc1ccc(C(=O)Nc2cnn(C(C)C3CC3)c2)cc1C#Cc1cccnc1 (centres unmarked) [Example 17, N-[1-(1-cyclopropylethyl)-1H-pyrazol-4-yl]-4-methyl-3-[2-(pyridin-3-yl)ethynyl]benzamide]
rescue of motor neuron survival in co-culture with patient-derived iAstrocytes (FIG. 3) [3]: rescue motor neuron survival
efficacy at very high concentrations (motor neuron survival) [3]: reduction in efficacy at very high concentrations

Cc1ccc(C(=O)Nc2cnn(C(C)C)c2)cc1C#Cc1cccnc1 [Example 24, N-(1-isopropylpyrazol-4-yl)-4-methyl-3-[2-(3-pyridyl)ethynyl]benzamide]
rescue of motor neuron survival in co-culture with patient-derived iAstrocytes (FIG. 3) [3]: rescue motor neuron survival
efficacy at very high concentrations (motor neuron survival) [3]: reduction in efficacy at very high concentrations
amount of α-synuclein present in ReNcell VM neuronal cells (FIG. 4) [4]: dose dependant reduction
pIC50 [4]: 5.00 to 6.00

Cc1ccc(C(=O)Nc2cc3n(n2)CCC3(C)C)cc1C#Cc1cccnc1 [Example 26, N-(4,4-dimethyl-5,6-dihydropyrrolo[1,2-b]pyrazol-2-yl)-4-methyl-3-[2-(3-pyridyl)ethynyl]benzamide]
rescue of motor neuron survival in co-culture with patient-derived iAstrocytes (FIG. 3) [3]: rescue motor neuron survival
amount of α-synuclein present in ReNcell VM neuronal cells (FIG. 4) [4]: dose dependant reduction
pIC50 [4]: 5.00 to 6.00

Cc1cn(-c2cc(NC(=O)c3ccc(C)c(Nc4nccc(-c5cccnc5)n4)c3)cc(C(F)(F)F)c2)cn1 [nilotinib, Nilotinib]
effect on sodium spike amplitude vs. control (given as reduction for nilotinib and Example 39) ([2]; 10 μM after 48 hours): 96.2%
proarrhythmic markers observed ([2]; 10 μM, 48 h): triggered activity and impedance instability
